Source: ChEMBL document CHEMBL1255512, “Pyrazolo[1,5-a]pyrimidine acetamides: 4-Phenyl alkyl ether derivatives as potent ligands for the 18 kDa translocator protein (TSPO)” (Bioorg Med Chem Lett, 2010)
pKi: −log10 of the molar value.

What was measured:
[1] = biological target: D(3) dopamine receptor (Homo sapiens) (UniProt P35462); experiment: Inhibition of D3 dopamine receptor at 10 uM
[2] = biological target: Histamine H2 receptor (Homo sapiens) (UniProt P25021); experiment: Inhibition of H2 receptor at 10 uM
[3] = biological target: Histamine H4 receptor (Homo sapiens) (UniProt Q9H3N8); experiment: Inhibition of H4 receptor at 10 uM
[4] = biological target: T1, Muscarinic acetylcholine receptor M5 (Homo sapiens) (UniProt P08912); experiment: Inhibition of M5 muscarinic receptor at 10 uM
T1 sequence (whole entry): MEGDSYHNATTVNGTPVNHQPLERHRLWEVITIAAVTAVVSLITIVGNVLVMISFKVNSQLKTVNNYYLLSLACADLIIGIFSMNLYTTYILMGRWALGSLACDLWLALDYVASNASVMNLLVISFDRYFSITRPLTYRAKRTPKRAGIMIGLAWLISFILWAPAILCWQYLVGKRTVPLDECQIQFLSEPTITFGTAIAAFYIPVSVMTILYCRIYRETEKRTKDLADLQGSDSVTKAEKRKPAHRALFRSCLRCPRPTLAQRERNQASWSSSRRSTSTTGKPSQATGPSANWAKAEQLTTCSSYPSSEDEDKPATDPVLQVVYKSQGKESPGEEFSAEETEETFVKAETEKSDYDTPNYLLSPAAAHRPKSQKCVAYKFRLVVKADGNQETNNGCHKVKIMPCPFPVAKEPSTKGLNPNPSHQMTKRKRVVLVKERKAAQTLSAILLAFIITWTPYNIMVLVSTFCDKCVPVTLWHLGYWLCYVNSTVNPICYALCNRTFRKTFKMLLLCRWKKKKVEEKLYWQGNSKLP

[5] = biological target: 5-hydroxytryptamine receptor 7 (Homo sapiens) (UniProt P34969); experiment: Inhibition of 5-HT7 receptor at 10 uM
[6] = biological target: T2, 5-hydroxytryptamine receptor 1A (Homo sapiens) (UniProt P08908); experiment: Inhibition of 5-HT1A receptor at 10 uM
T2 sequence (whole entry): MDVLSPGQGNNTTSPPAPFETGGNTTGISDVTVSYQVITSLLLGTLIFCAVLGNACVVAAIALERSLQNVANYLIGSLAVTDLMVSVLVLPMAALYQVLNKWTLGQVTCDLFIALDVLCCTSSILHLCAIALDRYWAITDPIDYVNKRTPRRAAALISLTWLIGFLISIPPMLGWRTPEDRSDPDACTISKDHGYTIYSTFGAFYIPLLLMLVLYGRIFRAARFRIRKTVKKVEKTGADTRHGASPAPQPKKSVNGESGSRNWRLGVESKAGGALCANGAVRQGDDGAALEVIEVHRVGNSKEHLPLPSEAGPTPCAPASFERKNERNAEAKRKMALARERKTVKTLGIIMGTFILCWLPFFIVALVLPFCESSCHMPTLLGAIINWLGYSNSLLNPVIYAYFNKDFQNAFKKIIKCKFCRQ

[7] = biological target: T3, Alpha-2C adrenergic receptor (Homo sapiens) (UniProt P18825); experiment: Inhibition of Alpha-2C adrenergic receptor at 10 uM
T3 sequence (whole entry): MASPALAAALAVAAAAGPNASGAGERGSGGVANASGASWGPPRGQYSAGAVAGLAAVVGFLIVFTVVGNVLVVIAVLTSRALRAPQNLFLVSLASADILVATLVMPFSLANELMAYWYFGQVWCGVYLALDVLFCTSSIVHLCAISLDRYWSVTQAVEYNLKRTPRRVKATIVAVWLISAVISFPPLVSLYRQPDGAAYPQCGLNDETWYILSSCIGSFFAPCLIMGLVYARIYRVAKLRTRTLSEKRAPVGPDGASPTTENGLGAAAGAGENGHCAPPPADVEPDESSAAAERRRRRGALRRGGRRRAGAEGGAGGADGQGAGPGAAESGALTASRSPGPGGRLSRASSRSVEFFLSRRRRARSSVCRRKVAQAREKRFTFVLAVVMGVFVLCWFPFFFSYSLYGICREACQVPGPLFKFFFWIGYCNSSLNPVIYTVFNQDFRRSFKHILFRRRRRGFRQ

[8] = biological target: D(2) dopamine receptor (Homo sapiens) (UniProt P14416); experiment: Inhibition of D2 dopamine receptor at 10 uM
[9] = biological target: Beta-2 adrenergic receptor (Homo sapiens) (UniProt P07550); experiment: Inhibition of beta2 adrenergic receptor at 10 uM
[10] = biological target: Beta-1 adrenergic receptor (Homo sapiens) (UniProt P08588); experiment: Inhibition of beta-1 adrenergic receptor at 10 uM
[11] = biological target: Histamine H3 receptor (Homo sapiens) (UniProt Q9Y5N1); experiment: Inhibition of H3 receptor at 10 uM
[12] = biological target: T4, Muscarinic acetylcholine receptor M2 (Homo sapiens) (UniProt P08172); experiment: Inhibition of M2 muscarinic receptor at 10 uM
T4 sequence (whole entry): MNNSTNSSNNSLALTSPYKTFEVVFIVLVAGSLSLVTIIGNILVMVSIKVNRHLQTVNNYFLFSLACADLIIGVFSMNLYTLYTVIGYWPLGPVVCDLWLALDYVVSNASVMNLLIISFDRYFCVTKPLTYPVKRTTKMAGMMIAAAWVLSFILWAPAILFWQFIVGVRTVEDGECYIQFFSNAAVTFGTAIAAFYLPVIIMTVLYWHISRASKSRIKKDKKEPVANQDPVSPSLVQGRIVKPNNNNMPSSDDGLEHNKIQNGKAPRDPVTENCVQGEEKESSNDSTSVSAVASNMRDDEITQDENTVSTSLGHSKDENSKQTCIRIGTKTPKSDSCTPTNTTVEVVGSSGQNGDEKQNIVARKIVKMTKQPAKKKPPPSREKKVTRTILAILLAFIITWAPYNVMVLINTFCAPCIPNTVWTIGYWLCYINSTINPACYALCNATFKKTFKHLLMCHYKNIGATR

[13] = biological target: D(1A) dopamine receptor (Homo sapiens) (UniProt P21728); experiment: Inhibition of D1 dopamine receptor at 10 uM
[14] = biological target: 5-hydroxytryptamine receptor 2B (Homo sapiens, UniProt P41595); experiment: Inhibition of 5-HT2B receptor at 10 uM
[15] = biological target: D(1B) dopamine receptor (Homo sapiens) (UniProt P21918); experiment: Inhibition of D5 dopamine receptor at 10 uM
[16] = biological target: 5-hydroxytryptamine receptor 2A (Homo sapiens) (UniProt P28223); experiment: Inhibition of 5-HT2A receptor at 10 uM
[17] = biological target: Sodium-dependent noradrenaline transporter (Homo sapiens) (UniProt P23975); experiment: Inhibition of norepinephrine receptor at 10 uM
[18] = biological target: 5-hydroxytryptamine receptor 5A (Homo sapiens) (UniProt P47898); experiment: Inhibition of 5-HT5A receptor at 10 uM
[19] = biological target: 5-hydroxytryptamine receptor 1B (Homo sapiens, UniProt P28222); experiment: Inhibition of 5-HT1B receptor
[20] = biological target: Mu-type opioid receptor (Homo sapiens) (UniProt P35372); experiment: Inhibition of mu opioid receptor at 10 uM
[21] = biological target: 5-hydroxytryptamine receptor 1E (Homo sapiens) (UniProt P28566); experiment: Inhibition of 5HT1E receptor at 10 uM
5-hydroxytryptamine receptor 1E (Homo sapiens), sequence (P28566 whole entry): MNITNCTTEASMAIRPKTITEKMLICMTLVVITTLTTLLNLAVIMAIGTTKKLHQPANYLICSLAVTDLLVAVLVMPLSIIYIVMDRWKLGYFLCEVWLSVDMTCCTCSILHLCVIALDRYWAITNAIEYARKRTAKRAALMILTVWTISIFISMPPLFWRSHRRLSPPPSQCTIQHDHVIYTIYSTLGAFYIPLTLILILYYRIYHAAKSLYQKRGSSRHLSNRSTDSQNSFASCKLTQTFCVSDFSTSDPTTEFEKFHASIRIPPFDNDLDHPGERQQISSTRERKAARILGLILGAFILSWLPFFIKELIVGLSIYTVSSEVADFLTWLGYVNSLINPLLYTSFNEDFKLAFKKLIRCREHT

Histamine H3 receptor (Homo sapiens), sequence (Q9Y5N1 whole entry): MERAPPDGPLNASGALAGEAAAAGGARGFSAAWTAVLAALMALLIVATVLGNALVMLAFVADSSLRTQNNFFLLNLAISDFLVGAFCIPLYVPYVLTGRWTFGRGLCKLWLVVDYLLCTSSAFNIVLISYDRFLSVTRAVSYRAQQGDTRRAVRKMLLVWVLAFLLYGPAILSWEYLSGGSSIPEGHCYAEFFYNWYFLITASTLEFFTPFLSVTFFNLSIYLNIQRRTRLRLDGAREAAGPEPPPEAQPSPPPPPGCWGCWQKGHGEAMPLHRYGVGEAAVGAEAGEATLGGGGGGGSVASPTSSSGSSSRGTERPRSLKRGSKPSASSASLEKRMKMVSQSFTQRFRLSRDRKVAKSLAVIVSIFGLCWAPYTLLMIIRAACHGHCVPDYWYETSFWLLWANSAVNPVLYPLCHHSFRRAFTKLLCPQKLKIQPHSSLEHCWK
5-hydroxytryptamine receptor 7 (Homo sapiens), sequence (P34969 whole entry): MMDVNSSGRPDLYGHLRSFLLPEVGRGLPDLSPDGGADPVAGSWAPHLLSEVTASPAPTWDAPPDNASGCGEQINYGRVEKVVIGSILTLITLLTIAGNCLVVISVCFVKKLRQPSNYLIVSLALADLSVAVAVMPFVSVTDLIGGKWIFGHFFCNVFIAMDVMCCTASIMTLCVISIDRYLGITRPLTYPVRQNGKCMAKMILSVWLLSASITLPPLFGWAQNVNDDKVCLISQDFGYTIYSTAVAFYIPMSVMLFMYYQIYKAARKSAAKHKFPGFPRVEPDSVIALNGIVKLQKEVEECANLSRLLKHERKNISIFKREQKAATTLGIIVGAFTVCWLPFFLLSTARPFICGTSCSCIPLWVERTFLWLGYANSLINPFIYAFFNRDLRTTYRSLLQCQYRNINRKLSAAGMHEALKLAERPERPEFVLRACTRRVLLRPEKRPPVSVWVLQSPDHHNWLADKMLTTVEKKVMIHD
Beta-2 adrenergic receptor (Homo sapiens), sequence (P07550 whole entry, looked up): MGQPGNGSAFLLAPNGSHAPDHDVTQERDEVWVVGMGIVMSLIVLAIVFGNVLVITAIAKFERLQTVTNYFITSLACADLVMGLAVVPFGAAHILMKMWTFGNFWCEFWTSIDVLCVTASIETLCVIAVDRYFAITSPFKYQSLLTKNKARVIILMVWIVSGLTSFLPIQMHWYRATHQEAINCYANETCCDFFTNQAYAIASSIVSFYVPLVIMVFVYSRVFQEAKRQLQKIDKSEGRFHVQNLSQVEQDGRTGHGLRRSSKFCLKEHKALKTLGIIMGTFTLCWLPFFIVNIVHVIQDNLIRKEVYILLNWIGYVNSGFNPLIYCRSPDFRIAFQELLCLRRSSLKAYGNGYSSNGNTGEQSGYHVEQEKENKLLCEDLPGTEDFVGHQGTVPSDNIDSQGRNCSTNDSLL
Histamine H2 receptor (Homo sapiens), sequence (P25021 whole entry): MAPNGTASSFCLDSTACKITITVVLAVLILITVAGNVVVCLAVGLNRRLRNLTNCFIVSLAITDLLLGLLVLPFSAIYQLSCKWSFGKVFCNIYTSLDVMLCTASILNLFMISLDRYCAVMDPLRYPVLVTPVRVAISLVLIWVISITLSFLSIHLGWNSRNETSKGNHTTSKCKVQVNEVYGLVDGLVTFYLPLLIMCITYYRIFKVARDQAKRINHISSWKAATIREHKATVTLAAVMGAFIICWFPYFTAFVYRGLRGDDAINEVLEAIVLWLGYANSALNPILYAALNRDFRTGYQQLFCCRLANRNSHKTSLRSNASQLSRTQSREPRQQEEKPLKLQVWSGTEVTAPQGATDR
D(3) dopamine receptor (Homo sapiens), sequence (P35462 whole entry): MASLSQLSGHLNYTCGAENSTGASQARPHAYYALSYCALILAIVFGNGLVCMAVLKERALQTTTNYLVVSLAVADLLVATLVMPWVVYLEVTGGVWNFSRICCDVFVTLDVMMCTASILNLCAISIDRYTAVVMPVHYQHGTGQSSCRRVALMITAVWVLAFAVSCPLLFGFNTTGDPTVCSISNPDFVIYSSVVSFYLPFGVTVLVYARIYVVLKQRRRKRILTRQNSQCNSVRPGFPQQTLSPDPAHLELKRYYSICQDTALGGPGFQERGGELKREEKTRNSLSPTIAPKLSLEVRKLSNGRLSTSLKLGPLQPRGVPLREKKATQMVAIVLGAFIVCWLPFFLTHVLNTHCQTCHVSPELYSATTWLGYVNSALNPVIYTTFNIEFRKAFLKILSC
D(2) dopamine receptor (Homo sapiens), sequence (P14416 whole entry): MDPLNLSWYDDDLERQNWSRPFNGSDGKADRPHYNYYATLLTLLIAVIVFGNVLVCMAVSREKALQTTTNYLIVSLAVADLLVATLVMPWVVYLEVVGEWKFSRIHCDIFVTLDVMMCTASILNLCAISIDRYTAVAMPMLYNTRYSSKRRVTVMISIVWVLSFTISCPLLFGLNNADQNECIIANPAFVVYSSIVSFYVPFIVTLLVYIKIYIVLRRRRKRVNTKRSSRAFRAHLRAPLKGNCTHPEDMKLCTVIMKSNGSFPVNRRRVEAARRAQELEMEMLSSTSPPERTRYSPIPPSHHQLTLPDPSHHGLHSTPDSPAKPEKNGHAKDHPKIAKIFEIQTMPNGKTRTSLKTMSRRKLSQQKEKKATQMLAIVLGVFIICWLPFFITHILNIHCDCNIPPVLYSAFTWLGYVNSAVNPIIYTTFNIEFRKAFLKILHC
5-hydroxytryptamine receptor 1B, sequence (P28222 whole entry): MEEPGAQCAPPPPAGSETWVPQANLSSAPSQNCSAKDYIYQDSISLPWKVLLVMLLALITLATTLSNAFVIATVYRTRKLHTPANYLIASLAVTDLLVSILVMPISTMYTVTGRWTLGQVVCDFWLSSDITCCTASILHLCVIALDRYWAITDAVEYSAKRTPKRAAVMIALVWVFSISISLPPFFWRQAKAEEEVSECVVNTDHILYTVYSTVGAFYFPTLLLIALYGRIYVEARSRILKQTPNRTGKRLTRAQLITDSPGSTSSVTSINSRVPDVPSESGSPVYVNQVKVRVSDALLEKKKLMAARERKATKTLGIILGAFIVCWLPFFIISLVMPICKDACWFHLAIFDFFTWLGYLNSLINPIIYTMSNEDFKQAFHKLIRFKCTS
5-hydroxytryptamine receptor 2B, sequence (P41595 whole entry): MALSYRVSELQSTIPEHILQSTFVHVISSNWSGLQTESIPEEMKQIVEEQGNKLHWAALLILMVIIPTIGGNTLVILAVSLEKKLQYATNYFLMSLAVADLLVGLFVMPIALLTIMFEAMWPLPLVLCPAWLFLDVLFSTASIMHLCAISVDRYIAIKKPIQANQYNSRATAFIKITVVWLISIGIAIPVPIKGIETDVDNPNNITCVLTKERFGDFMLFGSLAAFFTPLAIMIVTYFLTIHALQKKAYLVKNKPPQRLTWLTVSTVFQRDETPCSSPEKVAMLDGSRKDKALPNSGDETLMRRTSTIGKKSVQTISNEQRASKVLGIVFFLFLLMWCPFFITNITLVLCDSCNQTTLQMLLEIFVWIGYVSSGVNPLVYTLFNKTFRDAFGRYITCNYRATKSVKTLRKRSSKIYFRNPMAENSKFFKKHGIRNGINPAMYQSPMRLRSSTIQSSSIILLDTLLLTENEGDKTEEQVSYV
5-hydroxytryptamine receptor 2A (Homo sapiens), sequence (P28223 whole entry): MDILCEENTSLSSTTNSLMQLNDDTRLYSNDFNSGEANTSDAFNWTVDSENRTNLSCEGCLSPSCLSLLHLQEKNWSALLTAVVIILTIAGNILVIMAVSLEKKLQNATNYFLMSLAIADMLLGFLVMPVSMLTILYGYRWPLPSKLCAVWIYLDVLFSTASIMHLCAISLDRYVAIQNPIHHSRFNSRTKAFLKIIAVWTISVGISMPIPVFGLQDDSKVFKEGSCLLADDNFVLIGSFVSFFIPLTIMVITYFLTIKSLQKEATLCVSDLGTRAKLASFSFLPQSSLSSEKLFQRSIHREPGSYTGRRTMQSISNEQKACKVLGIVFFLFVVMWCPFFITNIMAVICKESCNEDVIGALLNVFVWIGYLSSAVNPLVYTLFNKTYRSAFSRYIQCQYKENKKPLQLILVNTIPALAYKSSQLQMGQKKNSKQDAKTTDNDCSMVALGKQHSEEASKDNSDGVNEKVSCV
Sodium-dependent noradrenaline transporter (Homo sapiens), sequence (P23975 whole entry): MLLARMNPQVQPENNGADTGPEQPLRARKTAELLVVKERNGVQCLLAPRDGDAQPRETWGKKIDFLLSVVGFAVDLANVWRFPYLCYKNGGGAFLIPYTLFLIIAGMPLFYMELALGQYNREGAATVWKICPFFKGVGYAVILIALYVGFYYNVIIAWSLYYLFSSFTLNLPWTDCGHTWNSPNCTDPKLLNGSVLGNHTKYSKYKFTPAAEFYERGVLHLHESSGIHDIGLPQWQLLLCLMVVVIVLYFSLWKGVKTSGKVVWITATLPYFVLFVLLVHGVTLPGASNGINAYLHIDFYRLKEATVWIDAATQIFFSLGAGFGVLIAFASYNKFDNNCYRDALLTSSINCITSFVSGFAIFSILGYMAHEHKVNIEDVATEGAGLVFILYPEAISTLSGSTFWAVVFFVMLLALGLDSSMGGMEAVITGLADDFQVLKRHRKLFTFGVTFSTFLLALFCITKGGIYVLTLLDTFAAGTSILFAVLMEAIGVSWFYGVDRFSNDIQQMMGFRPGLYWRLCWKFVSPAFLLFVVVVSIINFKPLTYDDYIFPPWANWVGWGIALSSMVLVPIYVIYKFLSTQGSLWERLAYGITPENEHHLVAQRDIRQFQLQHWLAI

inhibition [1]	inhibition [2]	inhibition [3]	inhibition [4]	inhibition [5]	inhibition [6]	inhibition [7]	inhibition [8]	inhibition [9]	inhibition [10]	inhibition [11]	inhibition [12]	inhibition [13]	inhibition [15]	inhibition [16]	inhibition [17]	inhibition [18]	pKi [19]	inhibition [20]	inhibition [21]	SMILES	other results
< 50%	< 50%	< 50%	< 50%	< 50%	< 50%	< 50%	< 50%	< 50%	< 50%	< 50%	< 50%	< 50%	< 50%	< 50%	< 50%	< 50%	< 5.00	< 50%	< 50%	C#CCOc1ccc(-c2nn3c(C)cc(C)nc3c2CC(=O)N(CC)CC)cc1	inhibition [14]: < 50%
< 50%	< 50%	< 50%	< 50%	< 50%	< 50%	< 50%	< 50%	< 50%	< 50%	< 50%	< 50%	< 50%	< 50%	< 50%	< 50%	< 50%	< 5.00	< 50%	< 50%	CCOc1ccc(-c2nn3c(C)cc(C)nc3c2CC(=O)N(CC)CC)cc1	inhibition [14]: < 50%
< 50%	< 50%	< 50%	< 50%	< 50%	< 50%	< 50%	< 50%	< 50%	< 50%	< 50%	< 50%	< 50%	< 50%	< 50%	< 50%	< 50%	< 5.00	< 50%	< 50%	CCCOc1ccc(-c2nn3c(C)cc(C)nc3c2CC(=O)N(CC)CC)cc1	inhibition [14]: < 50%
< 50%	< 50%	< 50%	< 50%	< 50%	< 50%	< 50%	< 50%	< 50%	< 50%	< 50%	< 50%	< 50%	< 50%	< 50%	< 50%	< 50%	5.80	< 50%	< 50%	CCCCOc1ccc(-c2nn3c(C)cc(C)nc3c2CC(=O)N(CC)CC)cc1	
